How the values were obtained:
Homo sapiens [1] = test: Toxicity in healthy human in 8 hrs fasted healthy human assessed as changes in vital signs at 200 mg, po administered as single dose of suspension; format: organism-based; conditions: in vivo
[2] = AUC (0 to infinity) in healthy human plasma at 200 mg, po once daily for 3 days measured after 3 days; format: ADME, organism-based; design: dose 200 mg, route oral, time infinity
[3] = Cmax in healthy human plasma at 200 mg, po once daily for 3 days measured after 3 days; format: ADME, organism-based; design: dose 200 mg, route oral
Homo sapiens [4] = test: Toxicity in healthy human in 8 hrs fasted healthy human assessed as changes in physical examinations at 200 mg, po administered as single dose of suspension; format: organism-based; conditions: in vivo
Homo sapiens [5] = test: Toxicity in healthy human in 8 hrs fasted healthy human assessed as changes in vital signs at 200 mg, po administered as single dose of two-100 mg capsules; format: organism-based; conditions: in vivo
Homo sapiens [6] = test: Toxicity in healthy human assessed as occurrence of mortality at 400 mg administered once on day 1 followed by 200 mg once daily for 2 days during 3 days of treatment; format: organism-based; conditions: in vivo
[7] = AUC (0 to last) in 8 hrs fasted healthy human plasma at 200 mg, po administered as single dose of suspension; format: ADME, organism-based; design: dose 200 mg, route oral, time 0 - last
[8] = Drug concentration in Epithelial lining fluid of healthy human at 400 mg, po administered as single dose after 24 hrs; format: ADME, organism-based; conditions: read-out: Drug uptake
Homo sapiens [9] = test: Toxicity in healthy human assessed as occurrence of mortality at 200 mg, po once daily for 3 days; format: organism-based; conditions: in vivo, 72 h
Homo sapiens [10] = test: Ratio of AUC (0 to 24 hrs) in healthy human plasma at loading dose of 400 mg/day, po once daily measured on 1 day to AUC (0 to 24 hrs) in healthy human plasma at 400 mg administered once on day 1 followed by 200 mg once daily for 2 days during 3 days of treatment measured on day 3; format: ADME, organism-based; conditions: in vivo
Homo sapiens [11] = test: Toxicity in healthy human in 8 hrs fasted healthy human assessed as changes in ECG at 200 mg, po administered as single dose of suspension; format: organism-based; conditions: in vivo
[12] = AUC (0 to last) in healthy human plasma at 400 mg administered once on day 1 followed by 200 mg once daily for 2 days during 3 days of treatment measured after 3 days; format: ADME, organism-based; design: dose 400 mg, time 0 - last
Homo sapiens [13] = test: Toxicity in high-fat fed healthy human assessed as incidence of severe adverse events at 200 mg, po administered as single dose of two-100 mg capsules; format: organism-based; conditions: in vivo
Homo sapiens [14] = test: Toxicity in high-fat fed healthy human assessed as changes in liver functions at 200 mg, po administered as single dose of two-100 mg capsules; format: organism-based; conditions: in vivo
Homo sapiens [15] = test: Toxicity in high-fat fed healthy human assessed as changes in ECG at 200 mg, po administered as single dose of two-100 mg capsules; format: organism-based; conditions: in vivo
[16] = Tmax in 8 hrs fasted healthy human plasma at 200 mg, po administered as single dose of suspension; format: ADME, organism-based
[17] = Cmax in 8 hrs fasted healthy human plasma at 200 mg, po administered as single dose of two-100 mg capsules; format: ADME, organism-based; design: dose 200 mg, route oral
Homo sapiens [18] = test: Ratio of AUC (0 to 24 hrs) in healthy human plasma at 200 mg, po once daily for 3 days measured on day 3 to AUC (0 to 24 hrs) in healthy human plasma at 200 mg, po once daily for 3 days measured on day 1; format: ADME, organism-based; conditions: in vivo
[19] = Half life in 8 hrs fasted healthy human plasma at 200 mg, po administered as single dose of suspension; format: ADME, organism-based
[20] = AUC (0 to infinity) in 8 hrs fasted healthy human plasma at 200 mg, po administered as single dose of suspension; format: ADME, organism-based; design: dose 200 mg, route oral, time infinity
Homo sapiens [21] = test: Ratio of AUC (0 to 24 hrs) in healthy human plasma at 200 mg, po once daily for 3 days measured after 3 days to AUC (0 to 24 hrs) in healthy human plasma at 200 mg, po once daily for 3 days measured after 1 day; format: ADME, organism-based; conditions: in vivo
[22] = Tmax in 8 hrs fasted healthy human plasma at 200 mg, po administered as single dose of two-100 mg capsules; format: ADME, organism-based
[23] = AUC (0 to infinity) in high-fat fed healthy human plasma at 200 mg, po administered as single dose of two-100 mg capsules; format: ADME, organism-based; design: dose 200 mg, route oral, time infinity
[24] = AUC (0 to 24 hrs) in Alveolar macrophage of healthy human at 400 mg, po administered as single dose; format: ADME, organism-based; conditions: alveolar macrophages, read-out: Drug uptake
[25] = Half life in healthy human plasma at 200 mg, po once daily for 3 days measured after 3 days; format: ADME, organism-based
Homo sapiens [26] = test: Ratio of AUC (0 to infinity) in high-fat fed healthy human plasma at 200 mg, po administered as single dose of two-100 mg capsules to AUC (0 to infinity) in high-fat fed healthy human plasma assessed as EDP-420 9-keto level at 200 mg, po administered as single dose of two-100 mg capsules; format: ADME, organism-based; conditions: in vivo
[27] = AUC (0 to last) in 8 hrs fasted healthy human plasma at 200 mg, po administered as single dose of two-100 mg capsules; format: ADME, organism-based; design: dose 200 mg, route oral, time 0 - last
Homo sapiens [28] = test: Toxicity in healthy human in 8 hrs fasted healthy human assessed as changes in liver functions at 200 mg, po administered as single dose of suspension; format: organism-based; conditions: in vivo
[29] = Ratio of drug concentration in Alveolar macrophage of healthy human at 400 mg, po administered as single dose after 24 hrs to drug concentration in Alveolar macrophage of healthy human at 500 mg, po administered as single dose after 24 hrs; format: ADME, organism-based; conditions: in vivo

AUC(0-inf) [2]: 16400 ng·h/mL
Cmax [3]: 559 ng/mL
AUC(0-t) [7]: 8270 ng·h/mL
concentration at 24 h [8]: 6500 ng/mL
Ratio AUC (Homo sapiens [10]): 0.99
AUC(0-t) [12]: 15000 ng·h/mL
Tmax [16]: 3.5 h
Cmax [17]: 405 ng/mL
Ratio AUC (Homo sapiens [18]): 1.41
half-life [19]: 1010 min
AUC(0-inf) [20]: 8350 ng·h/mL
Ratio AUC (Homo sapiens [21]): 1.4
Tmax [22]: 3.5 h
AUC(0-inf) [23]: 9040 ng·h/mL
AUC [24]: 2560 µg·h/mL
half-life [25]: 1040 min
Ratio (Homo sapiens [26]): 0.147
AUC(0-t) [27]: 8940 ng·h/mL
Ratio [29]: > 2
SMILES: CC[C@H]1OC(=O)[C@H](C)C(=O)[C@H](C)[C@@H](O[C@@H]2O[C@H](C)C[C@H](N(C)C)[C@H]2O)[C@@]2(C)C[C@@H](C)/C(=N\C(C)=O)[C@H](C)[C@@H](OC/C(=N\OCc3ccc(-n4cccn4)nc3)CO2)[C@]1(C)O [MODITHROMYCIN]
Activity (Homo sapiens [1]): Non-toxic
Activity (Homo sapiens [4]): Non-toxic
Activity (Homo sapiens [5]): Non-toxic
Activity (Homo sapiens [6]): Non-toxic
Activity (Homo sapiens [9]): Non-toxic
Activity (Homo sapiens [11]): Non-toxic
Activity (Homo sapiens [13]): Non-toxic
Activity (Homo sapiens [14]): Non-toxic
Activity (Homo sapiens [15]): Non-toxic
Activity (Homo sapiens [28]): Non-toxic

Source: ChEMBL document CHEMBL1687734, “Pharmacokinetics of EDP-420 after multiple oral doses in healthy adult volunteers and in a bioequivalence study” (Antimicrob Agents Chemother, 2009)
